Source: patent US8309558B2, “Compounds for the treatment of hepatitis C” (Bristol-Myers Squibb Company, priority 2008, dated 2012)
Where two headings read alike, the source gives them in different places.

Legend:
[1] = molecular target: T1, HCV NS5B RdRp genotype 1b (Hepatitis C virus genotype 1b, UniProt Q9WMX2); test: Standard HCV NS5B RdRp enzyme assay; type: biochemical
T1 construct: The protein was expressed with an 18 amino acid C-terminal truncation to enhance the solubility; made in house; host or cells: E. coli BL21(DE3), pET21a vector
T1 sequence (Q9WMX2 2420-2992): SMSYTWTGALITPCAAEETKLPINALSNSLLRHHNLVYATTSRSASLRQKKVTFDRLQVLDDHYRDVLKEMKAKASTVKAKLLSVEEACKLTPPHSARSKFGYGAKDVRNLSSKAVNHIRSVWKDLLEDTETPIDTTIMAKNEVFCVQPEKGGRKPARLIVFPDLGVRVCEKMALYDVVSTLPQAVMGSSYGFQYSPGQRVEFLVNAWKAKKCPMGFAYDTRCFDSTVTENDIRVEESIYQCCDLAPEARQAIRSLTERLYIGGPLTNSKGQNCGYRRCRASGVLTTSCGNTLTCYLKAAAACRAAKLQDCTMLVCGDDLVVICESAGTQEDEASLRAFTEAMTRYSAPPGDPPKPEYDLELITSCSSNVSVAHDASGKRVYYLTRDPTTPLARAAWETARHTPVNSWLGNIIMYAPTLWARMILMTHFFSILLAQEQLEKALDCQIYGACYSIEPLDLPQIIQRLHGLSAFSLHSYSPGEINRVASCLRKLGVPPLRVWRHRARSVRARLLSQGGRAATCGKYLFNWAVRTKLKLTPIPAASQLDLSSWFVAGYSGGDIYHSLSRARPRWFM
Method: HCV NS5B RdRp cloning, expression, and purification. The cDNA encoding the NS5B protein of HCV, genotype 1b, was cloned into the pET21a expression vector. The protein was expressed with an 18 amino acid C-terminal truncation to enhance the solubility. The E. coli competent cell line BL21(DE3) was used for expression of the protein. Cultures were grown at 37° C. for ˜4 hours until the cultures reached an optical density of 2.0 at 600 nm. The cultures were cooled to 20° C. and induced with 1 mM IPTG. Fresh ampicillin was added to a final concentration of 50 μg/ml and the cells were grown overnight at 20° C.
Cell pellets (3 L) were lysed for purification to yield 15-24 mgs of purified NS5B. The lysis buffer consisted of 20 mM Tris-HCl, pH 7.4, 500 mM NaCl, 0.5% triton X-100, 1 mM DTT, 1 mM EDTA, 20% glycerol, 0.5 mg/ml lysozyme, 10 mM MgCl2, 15 ug/ml deoxyribonuclease I, and Complete TM protease inhibitor tablets (Roche). After addition of the lysis buffer, frozen cell pellets were resuspended using a tissue homogenizer. To reduce the viscosity of the sample, aliquots of the lysate were sonicated on ice using a microtip attached to a Branson sonicator. The sonicated lysate was centrifuged at 100,000×g for 1 hr at 4° C. and filtered through a 0.2 μm filter unit (Corning).
The protein was purified using three sequential chromatography steps: Heparin sepharose CL-6B, polyU sepharose 4B, and Hitrap SP sepharose (Pharmacia). The chromatography buffers were identical to the lysis buffer but contained no lysozyme, deoxyribonuclease I, MgC12 or protease inhibitor and the NaCl concentration of the buffer was adjusted according to the requirements for charging the protein onto the column. Each column was eluted with a NaCl gradient which varied in length from 5-50 column volumes depending on the column type. After the final chromatography step, the resulting purity of the enzyme is >90% based on SDS-PAGE analysis. The enzyme was aliquoted and stored at −80° C.
Standard HCV NS5B RdRp enzyme assay. HCV RdRp genotype 1b assays were run in a final volume of 60 μl in 96 well plates (Costar 3912). The assay buffer composed of 20 mM Hepes, pH 7.5, 2.5 mM KCl, 2.5 mM MgCl2, 1 mM DTT, 1.6 U RNAse inhibitor (Promega N2515), 0.1 mg/ml BSA (Promega R3961), and 2% glycerol. All compounds were serially diluted (3-fold) in DMSO and diluted further in water such that the final concentration of DMSO in the assay was 2%. HCV RdRp genotype 1b enzyme was used at a final concentration of 28 nM. A polyA template was used at 6 nM, and a biotinylated oligo-dT12 primer was used at 180 nM final concentration. Template was obtained commercially (Amersham 27-4110). Biotinylated primer was prepared by Sigma Genosys. 3H-UTP was used at 0.6 μCi (0.29 μM total UTP). Reactions were initiated by the addition of enzyme, incubated at 30° C. for 60 min, and stopped by adding 25 μl of 50 mM EDTA containing SPA beads (4 μg/μl, Amersham RPNQ 0007). Plates were read on a Packard Top Count NXT after >1 hr incubation at room temperature.
IC50 values for compounds were determined using seven different [I]. IC50 values were calculated from the inhibition using the formula y=A+((B−A)/(1+((C/x)^D))).

[2] = test system: HCV replicon cells; test: HCV replicon FRET / luciferase assay (96-well plates); type: cell-based; details: Hepatitis C virus
Description: FRET Assay Preparation. To perform the HCV FRET screening assay, 96-well cell culture plates were used. The FRET peptide (Anaspec, Inc.) (Taliani et al., Anal. Biochem. 1996, 240, 60-67) contains a fluorescence donor, EDANS, near one end of the peptide and an acceptor, DABCYL, near the other end. The fluorescence of the peptide is quenched by […] resonance energy transfer (RET) between the donor and the acceptor, but as the NS3 protease cleaves the peptide the products are released from RET quenching and the fluorescence of the donor becomes apparent. The assay reagent was made as follows: 5× cell Luciferase cell culture lysis reagent from Promega (#E153A) diluted to 1× with dH2O, NaCl added to 150 mM final, the FRET peptide diluted to 20 μM final from a 2 mM stock.
To prepare plates, HCV replicon cells, with or without a Renilla luciferase reporter gene, were trypsinized and placed into each well of a 96-well plate with titrated test compounds added in columns 3 through 12; columns 1 and 2 contained a control compound (HCV protease inhibitor), and the bottom row contained cells without compound. The plates were then placed in a CO2 incubator at 37° C.
Assays. Subsequent to addition of the test compounds described above (FRET Assay Preparation), at various times the plate was removed and Alamar blue solution (Trek Diagnostics, #00-100) was added per well as a measure of cellular toxicity. After reading in a Cytoflour 4000 instrument (PE Biosystems), plates were rinsed with PBS and then used for FRET assay by the addition of 30 ul of the FRET peptide assay reagent described above (FRET Assay Preparation) per well. The plate was then placed into the Cytoflour 4000 instrument which had been set to 340 excite/490 emission, automatic mode for 20 cycles and the plate read in a kinetic mode. Typically, the signal to noise using an endpoint analysis after the reads was at least three-fold. Alternatively, after Alamar blue reading, plates were rinsed with PBS, 50 ul of DMEM (high glucose) without phenol red was added and plates were then used for luciferase assay using the Promega Dual-Glo Luciferase Assay System.
Compound analysis was determined by quantification of the relative HCV replicon inhibition and the relative cytotoxicity values. To calculate cytoxicity values, the average Alamar Blue fluorescence signals from the control wells were set as 100% non-toxic. The individual signals in each of the compound test wells were then divided by the average control signal and multiplied by 100% to determine […]. To calculate the HCV replicon inhibition values, an average background value was obtained from the two wells containing the highest amount of HCV protease inhibitor at the end of the assay period. These numbers were similar to those obtained from naïve Huh-7 cells.
The background numbers were then subtracted from the average signal obtained from the control wells and this number was used as 100% activity. The individual signals in each of the compound test wells were then divided by the averaged control values after background subtraction and multiplied by 100% to determine percent activity. EC50 values for a protease inhibitor titration were calculated as the concentration which caused a 50% reduction in FRET or luciferase activity. The two numbers generated for the compound plate, percent cytoxicity and percent activity were used to determine compounds of interest for further analysis.

[3] = Table 1a, HCV NS5B RdRp genotype 1b, read-out: IC50
[4] = Table 1a, HCV replicon, read-out: EC50
[5] = Table 1b, HCV NS5B RdRp genotype 1b, read-out: IC50

SMILES | IC50 [1, 3] [µM] | EC50 [2, 4] [µM] | IC50 [1, 5] [µM] | also measured
CNC(=O)c1c(-c2ccc(F)cc2)oc2ccc(-c3cccc(C(=O)NCC(C)C)c3)cc12 | < 0.25 | < 0.25 |  | 
CCCNC(=O)c1cccc(-c2ccc3oc(-c4ccc(F)cc4)c(C(=O)NC)c3c2)c1 | < 0.25 | < 0.25 |  | 
CNC(=O)c1c(-c2ccc(F)cc2)oc2ccc(-c3cccc(C(=O)NC(C)(C)C(=O)OC)c3)cc12 | < 0.25 | < 0.25 |  | 
CNC(=O)c1c(-c2ccc(F)cc2)oc2ccc(-c3cccc(C(=O)N[C@H]4C[C@@H]4c4ccccc4)c3)cc12 | > 0.4 | < 0.25 |  | 
CNC(=O)c1c(-c2ccc(F)cc2)oc2ccc(-c3cccc(C(=O)N[C@@H](C)c4cccc(OC)c4)c3)cc12 | < 0.25 | < 0.25 |  | 
CNC(=O)c1c(-c2ccc(F)cc2)oc2ccc(-c3cc(C(=O)NCC(C)C)ccc3O)cc12 | < 0.25 | < 0.25 |  | 
C#CC(C)(C)NC(=O)c1cccc(-c2ccc3oc(-c4ccc(F)cc4)c(C(=O)NC)c3c2)c1 | < 0.25 | < 0.25 |  | 
CNC(=O)c1c(-c2ccc(F)cc2)oc2ccc(-c3cccc(C(=O)NC(C)(C)CO)c3)cc12 | < 0.25 | < 0.25 |  | 
CNC(=O)c1c(-c2ccc(F)cc2)oc2ccc(-c3cccc(C(=O)NC(C)(C)C(F)(F)F)c3)cc12 | < 0.25 | < 0.25 |  | 
CNC(=O)c1c(-c2ccc(F)cc2)oc2ccc(-c3cccc(C(=O)NC(C)(C)CC(C)(C)C)c3)cc12 | 0.25 to 1 | < 0.25 |  | 
CCC(C)(C)NC(=O)c1cccc(-c2ccc3oc(-c4ccc(F)cc4)c(C(=O)NC)c3c2)c1 | < 0.25 | < 0.25 |  | 
CNC(=O)c1c(-c2ccc(F)cc2)oc2ccc(-c3cccc(C(=O)NC4(c5ccc(F)cc5)CC4)c3)cc12 | < 0.25 | < 0.25 |  | 
CNC(=O)c1c(-c2ccc(F)cc2)oc2ccc(-c3cccc(C(=O)NC4(c5ccccn5)CC4)c3)cc12 | < 0.25 | < 0.25 |  | 
CNC(=O)c1c(-c2ccc(F)cc2)oc2ccc(-c3cccc(C(=O)NC(C)(C)Cc4ccc(F)cc4)c3)cc12 | 0.25 to 1 | < 0.25 |  | 
CNC(=O)c1c(-c2ccc(F)cc2)oc2ccc(-c3cccc(C(=O)NC(C)(C)c4ccc(OC)cc4)c3)cc12 | < 0.25 | < 0.25 |  | 
CNC(=O)c1c(-c2ccc(F)cc2)oc2ccc(-c3ccc(-c4ccccc4)c(C(=O)NC(C)(C)c4ccccc4)c3)cc12 | < 0.25 | < 0.25 |  | 
CNC(=O)c1c(-c2ccc(F)cc2)oc2cc([N+](=O)[O-])c(-c3cccc(C(=O)NC(C)(C)c4ccccc4)c3)cc12 | < 0.25 | < 0.25 |  | 
CNC(=O)c1c(-c2ccc(F)cc2)oc2ccc(-c3cccc(C(=O)NC(C)(C)c4ccccc4)c3)c([N+](=O)[O-])c12 | < 0.25 | < 0.25 |  | 
CNC(=O)c1c(-c2ccc(F)cc2)oc2cc([N+](=O)[O-])c(-c3cccc(C(=O)NC4(c5ccccc5)CC4)c3)cc12 | < 0.25 | < 0.25 |  | 

SMILES | IC50 [1, 3] [µM] | EC50 [2, 4] [µM] | IC50 [1, 5] [µM] | also measured
CNC(=O)c1c(-c2ccc(F)cc2)oc2ccc(-c3cccc(C(=O)NC(C)(C)c4ccccc4)c3)c(N)c12 | < 0.25 | < 0.25 |  | 
CNC(=O)c1c(-c2ccc(F)cc2)oc2cc(NS(C)(=O)=O)c(-c3cccc(C(=O)NC(C)(C)c4ccccc4)c3)cc12 | < 0.25 | < 0.25 |  | 
CNC(=O)c1c(-c2ccc(F)cc2)oc2ccc(-c3cccc(C(=O)N4C5CCC4CN(C)C5)c3)cc12 |  |  |  | IC50 [1]: 1 to 10 µM; EC50 [2]: 1 to 10 µM
CNC(=O)c1c(-c2ccc(F)cc2)oc2ccc(-c3cccc(C(=O)NC4CN5CCC4CC5)c3)cc12 (stereo not drawn) |  |  |  | IC50 [1]: 1 to 10 µM; EC50 [2]: 1 to 10 µM
CCOC(=O)c1[nH]c(-c2cccc(-c3ccc4oc(-c5ccc(F)cc5)c(C(=O)NC)c4c3)c2)nc1C |  |  | < 0.25 | 
CNC(=O)c1c(-c2ccc(F)cc2)oc2cc(NS(C)(=O)=O)c(/C=C/C(=O)NC(C)(C)c3ccccc3)cc12 |  |  | 1 to 10 | 
CNC(=O)c1c(-c2ccc(F)cc2)oc2cc(N(CCO)S(C)(=O)=O)c(/C=C/C(=O)NC(C)(C)c3ccccc3)cc12 |  |  | < 0.25 | 
CNC(=O)c1c(-c2ccc(F)cc2)oc2ccc(-c3ccc(-c4ccnc(C)c4)c(C(=O)NCC(C)C)c3)cc12 |  |  | < 0.25 | 
CNC(=O)c1c(-c2ccc(F)cc2)oc2ccc(-c3ccc(-c4cccc(N)c4)c(C(=O)NCC(C)C)c3)cc12 |  |  | < 0.25 | 
CNC(=O)c1c(-c2ccc(F)cc2)oc2ccc(-c3ccc(-c4cncnc4)c(C(=O)NCC(C)C)c3)cc12 |  |  | < 0.25 | 
CNC(=O)c1c(-c2ccc(F)cc2)oc2ccc(-c3ccc(-c4c[nH]c(=O)[nH]c4=O)c(C(=O)NCC(C)C)c3)cc12 |  |  | < 0.25 | 
CNC(=O)c1c(-c2ccc(F)cc2)oc2ccc(-c3ccc(-c4cncc(OC)c4)c(C(=O)NCC(C)C)c3)cc12 |  |  | 0.25 to 1 | 
CNC(=O)c1c(-c2ccc(F)cc2)oc2ccc(-c3ccc(-c4cnc(N)nc4)c(C(=O)NCC(C)C)c3)cc12 |  |  | < 0.25 | 
CNC(=O)c1c(-c2ccc(F)cc2)oc2ccc(-c3ccc(-c4cncc(C)c4)c(C(=O)NCC(C)C)c3)cc12 |  |  | 0.25 to 1 | 
CNC(=O)c1c(-c2ccc(F)cc2)oc2ccc(-c3ccc(-c4ccsc4)c(C(=O)NCC(C)C)c3)cc12 |  |  | < 0.25 | 
CNC(=O)c1c(-c2ccc(F)cc2)oc2ccc(-c3cc(C(=O)NC4(C(=O)OC)CC4)c(O)cc3Cl)cc12 |  |  | 0.25 to 1 | 
CNC(=O)c1c(-c2ccc(F)cc2)oc2ccc(-c3cc(C(=O)NC4(C(=O)O)CC4)c(O)cc3Cl)cc12 |  |  | 0.25 to 1 | 
CNC(=O)c1c(-c2ccc(F)cc2)oc2ccc(-c3cc(C(=O)NC4(c5cccc(C)n5)CC4)c(OC)cc3C)cc12 |  |  |  | IC50 ([1]; Table 1d (class symbols), HCV NS5B RdRp genotype 1b, read-out: IC50): 0.001 to 0.25 µM
